Data as given in paper PMC8580050, “Improvement of the antimicrobial potency, pharmacokinetic and pharmacodynamic properties of albicidin by incorporation of nitrogen atoms” (Chemical Science, 2021).
≈ marks a conversion by molar mass, not a printed value. Where two headings read alike, the source gives them in different places.

Legend:
S. Typhimurium TA100 = assay: MIC determination (broth microdilution); type: cell-based, Salmonella typhimurium; conditions: Salmonella enterica; S. Typhimurium TA100; read-out: MIC
Experimental: (§1) 1.1.1 In vitro experiments
(§2) Determination of Minimal inhibitory concentrations (MIC)
(§3) Approved Standard M07-A9.1
(§4) CFU mL-1. […] Albicidin and […]
(§5) and serially diluted in DMSO (100%). […]
(§6) in 0.1 N HCL, respectively.
(§7) One row of each well plate served as a […]
(§8) sterility control (only MHB II-media). […]
(§9) adding 5 µL DMSO to several wells. […]
(§10) for growth inhibition by naked eye.
(§11) Microorganisms and Cell Cultures (DSMZ): […]

[1] = tested on: A. baumannii (ciprofloxacin resistant isolate); assay: microbe, parasite or virus in culture; type: cell-based, Acinetobacter baumannii
Experimental: as §1, §2, §3, §4, §5, §6, §7, §8, §9, §10, §11
(§12) Dr. Werner (Robert-Koch-Institut, Wernigerode, Germany): […]
(§13) for the following 11 pathogenic isolates: […]

[2] = tested on: S. aureus (ciprofloxacin resistant clinical isolate); assay: microbe, parasite or virus in culture; type: cell-based, Staphylococcus aureus
Experimental: as §1, §2, §3, §4, §5, §6, §7, §8, §9, §10, §11, §12, §13

[3] = tested on: K. pneumoniae (ciprofloxacin susceptible clinical isolate); assay: MIC, extended panel; type: cell-based, Klebsiella pneumoniae
Experimental: as §1, §2, §3, §4, §5, §6, §7, §8, §9, §10, §11, §12

E. coli DSM 1116 = assay: MIC determination (broth microdilution); type: cell-based, Escherichia coli
Experimental: as §1, §2, §3, §4, §5, §6, §7, §8, §9, §10, §11

[4] = tested on: S. aureus (ciprofloxacin susceptible clinical isolate); assay: MIC, extended panel; type: cell-based; conditions: Staphylococcus aureus
Experimental: as §1, §2, §3, §4, §5, §6, §7, §8, §9, §10, §11, §12, §13

[5] = tested on: P. aeruginosa (ciprofloxacin susceptible clinical isolate); assay: MIC, extended panel; type: cell-based, Pseudomonas aeruginosa
Experimental: as §1, §2, §3, §4, §5, §6, §7, §8, §9, §10, §11, §12, §13

[6] = tested on: E. faecium (ciprofloxacin susceptible clinical isolate); assay: microbe, parasite or virus in culture; conditions: Enterococcus faecium
[7] = tested on: E. coli knockout mutants from the KEIO collection (TolC, tsx); assay: MIC on E. coli knockout mutants (KEIO collection); type: cell-based; conditions: for MIC: Escherichia coli
[8] = tested on: K. pneumoniae (ciprofloxacin resistant clinical isolate); assay: microbe, parasite or virus in culture; type: cell-based; conditions: Klebsiella pneumoniae
Experimental: as §1, §2, §3, §4, §5, §6, §7, §8, §9, §10, §11, §12

[9] = tested on: Salmonella Kentucky (ciprofloxacin resistant clinical isolate); assay: microbe, parasite or virus in culture; type: cell-based
Experimental: as §1, §2, §3, §4, §5, §6, §7, §8, §9, §10, §11, §12

[10] = Pharmacokinetic study, i.v.
[11] = tested on: E. coli (ciprofloxacin susceptible clinical isolate); assay: MIC, extended panel; type: cell-based; conditions: Escherichia coli
Experimental: as §1, §2, §3, §4, §5, §6, §7, §8, §9, §10, §11, §12

[12] = tested on: Salmonella Kentucky (ciprofloxacin susceptible clinical isolate); assay: MIC, extended panel; type: cell-based; conditions: Salmonella enterica
Experimental: as §1, §2, §3, §4, §5, §6, §7, §8, §9, §10, §11, §12

[13] = tested on: E. coli (ciprofloxacin resistant clinical isolate); assay: microbe, parasite or virus in culture; type: cell-based, Escherichia coli
Experimental: as §1, §2, §3, §4, §5, §6, §7, §8, §9, §10, §11, §12

[14] = tested on: P. aeruginosa (ciprofloxacin resistant clinical isolate); assay: microbe, parasite or virus in culture; type: cell-based; conditions: Pseudomonas aeruginosa
Experimental: as §1, §2, §3, §4, §5, §6, §7, §8, §9, §10, §11, §12, §13

[15] = tested on: E. faecium (ciprofloxacin resistant clinical isolate); assay: microbe, parasite or virus in culture; type: cell-based; conditions: Enterococcus faecium
Experimental: as §1, §2, §3, §4, §5, §6, §7, §8, §9, §10, §11, §12, §13

Tolerability assessment = type: in vivo, CD-1 mice; conditions: intravenous injection, 50 mg kg^−1, mice
Experimental: Application volume of 5 ml kg-1 was used. Samples of K-EDTA blood were collected from each mouse […]
An individual blood cell count was performed for each sample. […]
performed with help of the grimace scale to monitor any changes in facial expression. […]
were sacrificed, and a macroscopic necropsy was performed to search for damaged organs. Data of blood cell count is given in Table S7 and reference values for measured blood cell parameters are given

M. phlei DSM 750 = assay: MIC determination (broth microdilution); type: cell-based, Mycobacterium phlei; conditions: Mycolicibacterium phlei, DSM750
Experimental: as §1, §2, §3, §4, §5, §6, §7, §8, §9, §10

E. coli BW25113 = assay: MIC determination (broth microdilution); type: cell-based; conditions: Escherichia coli
Experimental: as §1, §2, §3, §4, §5, §6, §7, §8, §9, §10, §11

B. subtilis DSM 10 = assay: MIC determination (broth microdilution); type: cell-based; conditions: Bacillus subtilis, DSM10
Experimental: as §1, §2, §3, §4, §5, §6, §7, §8, §9, §10, §11

M. luteus DSM1790 = assay: MIC determination (broth microdilution); type: cell-based, Micrococcus luteus; conditions: Micrococcus luteus, DSM1790
Experimental: as §1, §2, §3, §4, §5, §6, §7, §8, §9, §10, §11

[16] = tested on: fluoroquinolone-resistant (FQR) E. coli isolate; assay: Murine septicaemia infection model; type: in vivo, CD-1 mice
Experimental: From a panel of clinical ESKAPE isolates one fluoroquinolone (FQR)-resistant E. coli strain was selected for the preparation of the infection model (Table S3 ^†). […] Bacterial payload (CFU) was measured from spleens and kidneys and compared to untreated control animals.
Pharmacokinetic calculations
1.1.3 Murine septicemia infection model
For in vivo infections study female CD-1 mice (RjOrl:SWISS, 6 weeks old) were purchased from Janvier Labs (Le Genest Saint Isle, France). The animals were allowed to acclimatize for at least seven days before the start of experiments. Group-Housing was realized in a pathogen-free, temperature- […]
and water ad libitum throughout the study. All experimental procedures were approved by and conducted in accordance to the institutional guidelines. […]
septicemia infection model. Following overnight incubation in Brain Heart infusion at 37°C, the strain was spin down at 2.500 rpm for 10 min. Immediately before use, bacteria pellet was resuspended in […]
For infection procedure, mice were briefly anesthetized with continuous inhalation of isoflurane.
100 µl of bacterial suspension were intravenously administered. At least nine animals were used for each of the following therapeutic groups:
- Untreated but infected animals: control group (PBS)
- Drug candidate, dose 1 group (6 mg kg-1);
- Drug candidate, dose 2 group (17 mg kg-1). […]
respectively. Animals were monitored for clinical signs throughout the whole study using a 4-point body condition score analyzing weight loss, respiratory distress, hampered mobility and hunched posture. Animals were euthanized after 24 hours of infection. Spleen and kidneys from each animal were removed, weighed, and homogenized in 2 mL of PBS and used for quantitative cultures on agar

in vitro = conditions: plasma, pH 7.4
Experimental: Determination of plasma stability
Human and murine plasma aliquots (Sigma-Aldrich, Taufkirchen, Germany) were thawed and subsequently centrifuged at 3000 rpm for 10 min at 4°C. Resulting supernatant was diluted in the same volume of phosphate buffer (pH 7.4) to obtain a plasma concentration of 50% (v/v). Stock solutions of […]
concentration of 20 µM (5% DMSO). Following incubation at 37°C ice-cold methanol containing 30% […]
were centrifuged at 4000 rpm for 20 min at 4°C and 100 µL of supernatant were directly transferred to a fresh MS-vial. Samples were analyzed by LC/MS-MS experiments. Quantification of remaining compounds was performed by an external calibration curve of standard solutions in the range of […]

E. coli DNA gyrase = target: T1, E. coli DNA gyrase (Escherichia coli, UniProt P0AES4+P0AES6); assay: E. coli gyrase supercoiling inhibition assay; type: biochemical; design: key: ↑: for stronger inhibition; ≈: for equal inhibition; ↓: for diminished inhibition compared to albicidin 1; conditions: constant concentration of 45 nM, compared to albicidin 1
T1 construct: purchased inspiralis Limited, Norwich, UK
Experimental: Escherichia coli Gyrase Supercoiling Inhibition Assay
loaded on an agarose gel.
2-15. […] Addition of DNA
All derivatives were tested at a concentration of […]

[17] = tested on: E. coli DSM 1116 + 50% Human Serum; assay: MIC determination in presence of 50% human serum; type: cell-based; conditions: Escherichia coli, DSM1116
From the text: This investigation was completed by assessment of the antibacterial activity in presence of human plasma (50%) (Table 1), since high plasma protein binding can severely impair antibacterial activity and thus efficacy.
as §1, §2, §3, §4, §5, §6, §7, §8, §9, §10, §11

[18] = 50 mg kg-1 i.v., 2-compartment analysis

T1 sequence (P0AES4 whole entry, one chain of several): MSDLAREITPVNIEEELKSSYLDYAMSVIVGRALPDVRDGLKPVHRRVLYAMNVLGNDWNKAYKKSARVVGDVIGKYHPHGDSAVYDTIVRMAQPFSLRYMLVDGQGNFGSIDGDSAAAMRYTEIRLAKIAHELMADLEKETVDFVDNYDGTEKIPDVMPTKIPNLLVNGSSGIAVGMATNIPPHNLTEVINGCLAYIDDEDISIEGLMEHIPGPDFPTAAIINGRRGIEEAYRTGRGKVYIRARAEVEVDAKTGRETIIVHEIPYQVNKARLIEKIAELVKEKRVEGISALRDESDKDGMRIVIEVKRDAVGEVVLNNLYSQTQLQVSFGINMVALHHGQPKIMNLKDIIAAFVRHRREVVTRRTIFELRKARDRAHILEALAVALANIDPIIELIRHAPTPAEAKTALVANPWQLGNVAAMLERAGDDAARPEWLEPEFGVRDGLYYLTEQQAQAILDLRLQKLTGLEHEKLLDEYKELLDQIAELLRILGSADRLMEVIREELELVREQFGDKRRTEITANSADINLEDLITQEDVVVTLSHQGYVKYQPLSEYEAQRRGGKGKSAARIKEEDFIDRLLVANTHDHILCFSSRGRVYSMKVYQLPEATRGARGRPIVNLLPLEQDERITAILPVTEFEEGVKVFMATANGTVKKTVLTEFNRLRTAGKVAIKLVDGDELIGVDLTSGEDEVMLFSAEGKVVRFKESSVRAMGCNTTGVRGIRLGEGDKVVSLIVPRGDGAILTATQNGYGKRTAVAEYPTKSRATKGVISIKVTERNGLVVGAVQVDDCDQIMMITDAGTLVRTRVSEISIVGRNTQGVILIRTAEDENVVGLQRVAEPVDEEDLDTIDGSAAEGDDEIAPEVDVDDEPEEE

COc1c(NC(=O)c2ccc(NC(=O)c3ccc(NC(=O)[C@H](Cc4c[nH]nn4)NC(=O)c4ccc(NC(=O)/C(C)=C/c5ccc(O)cc5)cc4)cn3)c(OC)c2O)ccc(C(=O)O)c1O [Compound 7]
MIC (S. Typhimurium TA100): ≤ 0.016 µg/mL | MIC ([1]; Acinetobacter baumannii): 0.016 µg/mL (≈ 0.0181 µM) | activity, times higher compared to 2 ([1]; CIP-resistant A. baumannii): 125 times | activity, times higher compared to 2 ([2]; CIP-resistant S. aureus): 8 times | MIC ([2]; Staphylococcus aureus): 0.063 µg/mL (≈ 0.0711 µM) | activity, times higher than 2 ([3]; CIP sensitive K. pneumonia): 8 times | MIC ([3]; Klebsiella pneumoniae): 8 µg/mL (≈ 9.03 µM) | MIC for E. coli (E. coli DSM 1116; E. coli, strain not given): 0.016 µg/mL | MIC (E. coli DSM 1116; Escherichia coli, DSM1116): ≤ 0.016 µg/mL | MIC [4]: 0.016 µg/mL (≈ 0.0181 µM) | activity, times higher than 2 ([5]; CIP sensitive P. aeruginosa): 4 times | MIC ([5]; Pseudomonas aeruginosa): 1 µg/mL (≈ 1.13 µM) | MIC [6]: 0.25 µg/mL (≈ 0.282 µM) | MIC ([7]; read-out: antimicrobial activity (MIC), TolC (efflux transporter) knockout mutation): ≤ 0.016 µg/mL | MIC ([7]; read-out: antimicrobial activity (MIC), before TolC knockout (parent strain)): 0.063 µg/mL (≈ 0.0711 µM) | increase of efficacy, factor ([7]; TolC knockout mutation): 4 | decrease in activity ([7]; knockout mutation of the tsx gene): 10 fold | MIC [8]: 64 µg/mL (≈ 72.2 µM) | activity, times higher compared to 2 ([9]; CIP-resistant Salmonella Kentucky): 8 times | MIC ([9]; Salmonella enterica): 0.016 µg/mL (≈ 0.0181 µM) | T1/2 kel, mean [10, 18]: 1.4 h | T1/2 λz, mean [10, 18]: 8.3 h | plasma level as multiple of MIC for E. coli ([10]; 50 mg kg^−1 i.v., after 24 h): higher than 5 times MIC | MIC [11]: 0.016 µg/mL (≈ 0.0181 µM) | MIC [12]: 0.016 µg/mL (≈ 0.0181 µM) | activity, times higher compared to 2 ([13]; CIP-resistant E. coli): 4 times | MIC ([13]; Escherichia coli): 0.016 µg/mL (≈ 0.0181 µM) | MIC [14]: 2 µg/mL (≈ 2.26 µM) | MIC [15]: 32 µg/mL (≈ 36.1 µM) | adverse effects or histopathological observations (tolerability study) (Tolerability assessment): did not show any adverse effects or histopathological observations | MIC (M. phlei DSM 750): 0.25 µg/mL (≈ 0.282 µM) | MIC (E. coli BW25113): ≤ 0.016 µg/mL | MIC (B. subtilis DSM 10): 0.063 µg/mL (≈ 0.0711 µM) | MIC (M. luteus DSM1790): 0.031 µg/mL (≈ 0.035 µM) | CFU reduction in kidney ([16]; 17 mg kg^−1 applied twice): > 2 log units | CFU reduction in spleen ([16]; 17 mg kg^−1 applied twice): more than 3 log units | survival ([16]; 17 mg kg^−1 applied twice, lethal dose of FQR clinical isolate E. coli): all mice survived | survival after 24 h ([16]; 6 and 17 mg kg^−1 i.v. twice, lethal dose of FQR resistant E. coli): survived | reduction of bacterial counts in kidneys ([16]; both tested doses (6 and 17 mg kg^−1 i.v. twice), versus untreated control): > 3 log 10 CFU g^−1 | half-life at 20 µM (in vitro; human): > 4 h | half-life at 20 µM (in vitro; mouse): 1.58 h | E. coli gyrase inhibition (E. coli DNA gyrase): ↑ | MIC [17]: 0.5 µg/mL
